Where “and” joins values, the source holds several entries; their conditions need not be identical. Equal values may be shown once.
Key:
[1] = target: T1, retinoic acid receptor (RAR)α (Homo sapiens, UniProt P10276); test: Nuclear receptor selectivity profiling, hybrid reporter gene assay, RARα; assay type: cell-based
T1 construct: RARα (pFA-CMV-hRARα-LBD[104], 1 μM tretinoin); expressed in transfected cells; host or cells: HEK293T
T1 sequence (P10276 183-417 limits assumed): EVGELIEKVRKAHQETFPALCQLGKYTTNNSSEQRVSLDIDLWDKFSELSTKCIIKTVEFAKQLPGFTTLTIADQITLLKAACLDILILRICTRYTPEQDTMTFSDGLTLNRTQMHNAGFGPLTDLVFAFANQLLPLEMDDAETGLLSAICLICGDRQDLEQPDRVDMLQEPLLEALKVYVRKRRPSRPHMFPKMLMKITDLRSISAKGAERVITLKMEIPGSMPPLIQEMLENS
Experimental: Compounds 1–3 were characterized in a hybrid reporter gene assay for their agoniztic effect on human nuclear receptors PPARα/γ/δ, RXRα, FXRα, RARα in HEK293T cells. Compound 1 was tested in an isothermal titration calorimetry (ITC) assay to measure direct binding affinity to the ligand-binding domain of PPARγ. ADME properties were measured in standardized assays at Roche.
PPAR activation was determined in uniform Gal4-hybrid reporter gene assays for the PPARα, PPARγ and PPARδ isoforms in HEK293T cells (German Collection of Microorganisms and Cell Culture GmbH, DSMZ) which were transiently transfected with pFR-Luc (Stratagene, La Jolla, CA, USA; reporter) and pRL-SV40 (Promega, Madison, WI, USA; internal control) and one pFA-CMV-hPPAR-LBD[97] clone, coding for the hinge region and ligand binding domain of the canonical isoform of human PPARα, PPARγ, PPARδ or respectively. Cells were cultured in Dulbecco’s modified Eagle’s medium (DMEM), high glucose supplemented with 10% fetal calf serum (FCS), sodium pyruvate (1 mM), penicillin (100 U ⋅ ml^-1), and streptomycin (100 μg ⋅ ml^-1) at 37 °C and 5% CO2 and seeded in 96-well plates (3 × 10^4 cells per well). After 24 h, medium was changed to Opti-MEM without supplements and cells were transiently transfected using Lipofectamine LTX reagent (Invitrogen) according to the manufacturer’s protocol. Five hours after transfection, cells were incubated with the test compounds in Opti-MEM supplemented with penicillin (100 U ⋅ ml^-1), streptomycin (100 μg ⋅ ml^-1) and 0.1% DMSO for 16 h before luciferase activity was measured using the Dual-Glo Luciferase Assay System (Promega) according to the manufacturer’s protocol on a Tecan Spark luminometer (Tecan Deutschland GmbH, Germany). Firefly luminescence was divided by Renilla luminescence and multiplied by 1000 resulting in relative light units (RLU) to normalize for transfection efficiency and cell growth. Fold activation was obtained by dividing the mean RLU of a test compound by the mean RLU of the untreated control. All samples were tested in at least three biologically independent experiments in duplicates. For dose-response curve fitting and calculation of EC50 values, the equation “[Agonist] versus response (variable slope—four parameters)” was used in GraphPad Prism (version 7.00, GraphPad Software, La Jolla, CA, USA) with fold activation data. The reference agonizts GW7647 (PPARα)[98],[99], pioglitazone (PPARγ)[100],[101] and L165,041 (PPARδ)[102],[103] were used to validate the assays and to monitor assay performance. Nuclear receptor selectivity profiling was performed with corresponding pFA-CMV-hNR-LBD clones and suitable reference agonizts on RARα (pFA-CMV-hRARα-LBD[104], 1 μM tretinoin), LXRα (pFA-CMV-hLXRα-LBD[104], 1 μM TO901317) and RXRα (pFA-CMV-h RXRα-LBD[105], 1 μM Bexarotene).

ABL1 = ABL1 (Homo sapiens, UniProt P00519); test: Safety off-target panel, enzymatic; assay type: biochemical; settings: single point
From the text: (§1) Table S9-S12 list all targets, their species, inhibition (%) and assay type for the experiments conducted in the
(§2) off-targets. […] The numbers for mean
(§3) inhibition (%) represent single point measurements.
(§4) off-targets. […] The numbers for
(§5) mean inhibition (%) represent single point measurements.

ACETYLCHOLINESTERASE = ACETYLCHOLINESTERASE (Homo sapiens, UniProt P22303); test: Safety off-target panel, enzymatic; assay type: biochemical; settings: single point
From the text: as §1, §2, §3, §4, §5

[2] = target: ANGIOTENSIN CONVERTING ENZYME (Homo sapiens, UniProt P12821); test: Safety off-target panel, enzymatic; assay type: biochemical; settings: single point
From the text: as §1, §2, §3, §4, §5

CDK2 = CDK2 (Homo sapiens, UniProt P24941); test: Safety off-target panel, enzymatic; assay type: biochemical; settings: single point
From the text: as §1, §2, §3, §4, §5

GSK-3A = GSK-3A (Homo sapiens, UniProt P49840); test: Safety off-target panel, enzymatic; assay type: biochemical; settings: single point
From the text: as §1, §2, §3, §4, §5

GSK-3B = GSK-3B (Homo sapiens, UniProt P49841); test: Safety off-target panel, enzymatic; assay type: biochemical; settings: single point
From the text: as §1, §2, §3, §4, §5

HIV-1 PROTEASE = test: Safety off-target panel, enzymatic; assay type: biochemical; settings: 10 µM, single point
From the text: as §1, §2, §3, §4, §5

PHOSPHODIESTERASE 4D2 = PHOSPHODIESTERASE 4D2 (Homo sapiens, UniProt Q08499); test: Safety off-target panel, enzymatic; assay type: biochemical; settings: single point
From the text: as §1, §2, §3, §4, §5

XANTHINE OXIDASE = XANTHINE OXIDASE (Bos taurus, UniProt P80457); test: Safety off-target panel, enzymatic; assay type: biochemical, Bovine; settings: single point
From the text: as §1, §2, §3, §4, §5

[3] = test system: CA2+ CHANNEL (DILTIAZEM SITE); test: Safety off-target panel, binding; design: species or system Rat; settings: 10 µM, single point
From the text: as §1, §2, §3, §4, §5

[4] = test system: GABA-A (BENZODIAZAPINE BINDING SITE); test: Safety off-target panel, binding; design: species or system Rat; settings: 10 µM, single point
From the text: as §1, §2, §3, §4, §5

PCP RECEPTOR = test: Safety off-target panel, binding; design: species or system Rat; settings: 10 µM, single point
From the text: as §1, §2, §3, §4, §5

[5] = test system: NICOTINIC RECEPTOR, NEURONAL (α-BGTX insens.); test: Safety off-target panel, binding; design: species or system Human; settings: 10 µM, single point
From the text: as §1, §2, §3, §4, §5

Sequence of XANTHINE OXIDASE (P80457 whole entry): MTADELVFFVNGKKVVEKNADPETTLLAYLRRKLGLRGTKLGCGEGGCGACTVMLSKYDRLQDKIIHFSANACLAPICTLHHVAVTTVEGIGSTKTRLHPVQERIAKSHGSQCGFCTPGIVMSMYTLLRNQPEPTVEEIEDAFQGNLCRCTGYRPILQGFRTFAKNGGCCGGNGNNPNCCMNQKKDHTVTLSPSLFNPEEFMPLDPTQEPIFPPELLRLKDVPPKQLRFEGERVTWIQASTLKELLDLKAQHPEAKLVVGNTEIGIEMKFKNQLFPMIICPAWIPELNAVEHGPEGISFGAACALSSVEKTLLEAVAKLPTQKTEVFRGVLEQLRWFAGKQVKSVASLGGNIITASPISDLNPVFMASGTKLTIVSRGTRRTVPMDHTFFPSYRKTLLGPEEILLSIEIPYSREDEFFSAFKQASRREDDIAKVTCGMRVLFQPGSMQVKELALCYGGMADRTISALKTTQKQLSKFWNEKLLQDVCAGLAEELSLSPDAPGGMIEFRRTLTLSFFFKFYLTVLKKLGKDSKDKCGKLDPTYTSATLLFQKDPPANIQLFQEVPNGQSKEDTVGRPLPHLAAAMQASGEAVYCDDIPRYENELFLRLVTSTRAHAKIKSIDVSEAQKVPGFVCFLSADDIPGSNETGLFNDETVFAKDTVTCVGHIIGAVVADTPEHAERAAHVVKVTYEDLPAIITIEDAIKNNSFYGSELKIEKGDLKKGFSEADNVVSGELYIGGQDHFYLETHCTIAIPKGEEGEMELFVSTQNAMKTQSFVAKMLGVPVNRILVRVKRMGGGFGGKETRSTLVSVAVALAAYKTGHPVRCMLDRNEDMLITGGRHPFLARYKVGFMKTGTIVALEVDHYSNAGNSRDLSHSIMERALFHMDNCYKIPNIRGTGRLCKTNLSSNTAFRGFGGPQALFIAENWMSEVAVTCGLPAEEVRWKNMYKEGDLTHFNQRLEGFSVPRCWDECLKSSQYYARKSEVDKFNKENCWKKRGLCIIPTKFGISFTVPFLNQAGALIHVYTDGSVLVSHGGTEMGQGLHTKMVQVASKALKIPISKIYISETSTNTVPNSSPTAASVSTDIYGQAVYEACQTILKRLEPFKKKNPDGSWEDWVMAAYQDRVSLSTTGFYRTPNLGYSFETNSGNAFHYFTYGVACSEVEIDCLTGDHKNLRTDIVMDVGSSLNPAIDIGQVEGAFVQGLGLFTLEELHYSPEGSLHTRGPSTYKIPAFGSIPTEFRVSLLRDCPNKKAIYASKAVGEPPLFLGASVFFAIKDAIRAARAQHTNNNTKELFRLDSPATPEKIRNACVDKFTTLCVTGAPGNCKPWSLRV
Sequence of UniProt P22303 (P22303 32-614): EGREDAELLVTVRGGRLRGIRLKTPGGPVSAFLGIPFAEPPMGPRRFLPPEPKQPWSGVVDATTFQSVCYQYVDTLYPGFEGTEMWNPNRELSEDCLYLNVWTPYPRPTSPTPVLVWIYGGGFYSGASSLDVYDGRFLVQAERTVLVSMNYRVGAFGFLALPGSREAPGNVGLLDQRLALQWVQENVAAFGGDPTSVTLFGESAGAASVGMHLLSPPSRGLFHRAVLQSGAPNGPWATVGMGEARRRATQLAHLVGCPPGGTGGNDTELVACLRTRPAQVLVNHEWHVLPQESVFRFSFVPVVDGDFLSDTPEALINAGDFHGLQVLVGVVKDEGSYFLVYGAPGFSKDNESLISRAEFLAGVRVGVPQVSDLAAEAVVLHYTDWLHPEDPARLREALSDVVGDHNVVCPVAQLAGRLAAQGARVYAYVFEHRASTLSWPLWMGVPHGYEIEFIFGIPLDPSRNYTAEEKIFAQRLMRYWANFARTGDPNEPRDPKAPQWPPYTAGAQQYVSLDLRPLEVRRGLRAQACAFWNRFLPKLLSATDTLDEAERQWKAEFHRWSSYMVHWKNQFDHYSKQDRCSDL
Sequence of ABL1 (P00519 whole entry): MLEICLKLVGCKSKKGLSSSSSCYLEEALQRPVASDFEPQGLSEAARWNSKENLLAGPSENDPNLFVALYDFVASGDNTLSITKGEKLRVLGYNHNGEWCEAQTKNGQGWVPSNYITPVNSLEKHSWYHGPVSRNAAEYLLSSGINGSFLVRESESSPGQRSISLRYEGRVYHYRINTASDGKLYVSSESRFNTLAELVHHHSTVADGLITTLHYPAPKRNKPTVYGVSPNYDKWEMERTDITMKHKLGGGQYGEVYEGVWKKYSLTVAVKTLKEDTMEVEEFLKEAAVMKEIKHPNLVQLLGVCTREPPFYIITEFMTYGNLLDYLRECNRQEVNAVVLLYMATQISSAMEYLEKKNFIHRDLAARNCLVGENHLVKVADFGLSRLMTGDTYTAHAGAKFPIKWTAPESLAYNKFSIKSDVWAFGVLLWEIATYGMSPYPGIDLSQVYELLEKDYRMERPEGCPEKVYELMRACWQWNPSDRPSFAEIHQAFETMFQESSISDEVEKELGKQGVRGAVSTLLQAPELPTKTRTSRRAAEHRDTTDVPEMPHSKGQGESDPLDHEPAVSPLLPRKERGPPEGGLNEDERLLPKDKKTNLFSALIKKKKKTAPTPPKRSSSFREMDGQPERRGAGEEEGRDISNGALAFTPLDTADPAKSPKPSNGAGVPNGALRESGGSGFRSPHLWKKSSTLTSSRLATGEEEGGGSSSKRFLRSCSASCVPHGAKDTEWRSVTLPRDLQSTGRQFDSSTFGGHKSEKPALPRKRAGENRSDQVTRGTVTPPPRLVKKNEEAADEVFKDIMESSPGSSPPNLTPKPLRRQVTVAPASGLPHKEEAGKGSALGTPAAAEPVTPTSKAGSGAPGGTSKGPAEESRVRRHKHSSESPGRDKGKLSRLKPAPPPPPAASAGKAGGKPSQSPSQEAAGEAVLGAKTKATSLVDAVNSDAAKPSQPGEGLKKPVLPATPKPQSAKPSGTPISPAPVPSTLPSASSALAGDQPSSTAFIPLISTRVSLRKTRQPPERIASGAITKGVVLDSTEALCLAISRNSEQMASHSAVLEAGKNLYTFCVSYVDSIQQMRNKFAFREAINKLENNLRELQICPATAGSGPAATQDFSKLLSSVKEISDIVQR
Sequence of GSK-3B (P49841 whole entry): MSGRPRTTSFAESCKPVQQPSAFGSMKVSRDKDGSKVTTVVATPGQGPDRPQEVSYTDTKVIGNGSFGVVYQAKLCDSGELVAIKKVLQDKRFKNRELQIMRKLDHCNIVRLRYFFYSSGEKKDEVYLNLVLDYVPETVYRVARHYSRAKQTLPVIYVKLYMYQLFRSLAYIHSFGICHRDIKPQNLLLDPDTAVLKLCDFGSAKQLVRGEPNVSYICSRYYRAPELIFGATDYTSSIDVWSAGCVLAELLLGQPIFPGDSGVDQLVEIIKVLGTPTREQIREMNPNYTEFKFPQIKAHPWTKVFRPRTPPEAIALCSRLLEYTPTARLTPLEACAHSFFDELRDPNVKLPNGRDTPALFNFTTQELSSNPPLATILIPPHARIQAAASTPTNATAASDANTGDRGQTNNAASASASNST
Sequence of UniProt Q08499 (Q08499 303-809 limits assumed): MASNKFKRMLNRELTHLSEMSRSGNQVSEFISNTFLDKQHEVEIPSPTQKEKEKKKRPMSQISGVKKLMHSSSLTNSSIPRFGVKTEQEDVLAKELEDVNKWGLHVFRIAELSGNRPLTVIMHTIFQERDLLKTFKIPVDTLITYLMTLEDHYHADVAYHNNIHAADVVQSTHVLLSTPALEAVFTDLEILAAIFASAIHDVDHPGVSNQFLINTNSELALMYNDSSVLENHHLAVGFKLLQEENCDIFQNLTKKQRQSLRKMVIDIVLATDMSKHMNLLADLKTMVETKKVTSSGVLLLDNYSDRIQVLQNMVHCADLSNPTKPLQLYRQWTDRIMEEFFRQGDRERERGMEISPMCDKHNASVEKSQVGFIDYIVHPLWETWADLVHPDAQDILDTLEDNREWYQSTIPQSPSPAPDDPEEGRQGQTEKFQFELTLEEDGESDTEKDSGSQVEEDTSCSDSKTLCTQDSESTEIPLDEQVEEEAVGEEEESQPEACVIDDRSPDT
Sequence of GSK-3A (P49840 whole entry): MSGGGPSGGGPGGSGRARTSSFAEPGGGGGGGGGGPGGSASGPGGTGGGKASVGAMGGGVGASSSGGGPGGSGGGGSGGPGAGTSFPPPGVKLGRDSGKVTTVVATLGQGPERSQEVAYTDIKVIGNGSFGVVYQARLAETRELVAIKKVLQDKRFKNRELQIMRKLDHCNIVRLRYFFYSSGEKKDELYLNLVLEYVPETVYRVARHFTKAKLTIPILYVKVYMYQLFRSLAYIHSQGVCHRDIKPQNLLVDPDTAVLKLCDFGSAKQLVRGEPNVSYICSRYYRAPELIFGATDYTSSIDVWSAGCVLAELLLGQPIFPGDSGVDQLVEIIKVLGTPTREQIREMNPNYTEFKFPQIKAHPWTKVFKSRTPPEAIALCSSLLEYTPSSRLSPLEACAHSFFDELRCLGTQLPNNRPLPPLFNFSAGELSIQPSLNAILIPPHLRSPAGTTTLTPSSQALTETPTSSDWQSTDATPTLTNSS

| SMILES | RARα reporter activation, replicate values (DMSO ctrl = 1,000) ([1]; 3 µM) | RARα reporter activation, replicate values (DMSO ctrl = 1,000) ([1]; 10 µM) | inhibition at 10 µM (ABL1) | inhibition at 10 µM (ACETYLCHOLINESTERASE) | inhibition at 10 µM [2] | inhibition at 10 µM (CDK2) | inhibition at 10 µM (GSK-3A) | inhibition at 10 µM (GSK-3B) | Mean inhibition (%) (HIV-1 PROTEASE) | inhibition at 10 µM (PHOSPHODIESTERASE 4D2) | inhibition at 10 µM (XANTHINE OXIDASE) | Mean inhibition (%) [3] | Mean inhibition (%) [4] | Mean inhibition (%) (PCP RECEPTOR) | Mean inhibition (%) [5] |
| --- | --- | --- | --- | --- | --- | --- | --- | --- | --- | --- | --- | --- | --- | --- | --- |
| COc1ccc(Oc2ccc3ncn(CCOc4ccc(CCC(=O)O)cc4)c3c2)cc1 [Compound 2] | 1,038 and 0,832 and 1,499 | 1,361 and 1,194 and 1,664 | -11% | 2% | -44.3% | 45.9% | -8.8% | -20.3% | 0.2% | -3.8% | 0.4% | -11.7% | 57.8% | 11.8% | -2.9% |
| Cc1nnc(-c2ccc(OCCCOc3ccc(CCC(=O)O)c(F)c3)c(F)c2)s1 [Compound 1] | 0,775 and 0,698 and 0,825 | 1,145 and 0,633 and 0,940 | 4.4% | 0% | -11.6% | 3.6% | 39.6% | 20.2% | 8.2% | 3.1% | -3.1% | -4.7% | 12.5% | -12.0% | -6.9% |

From paper PMC11035696, “Prospective de novo drug design with deep interactome learning” (Nature Communications, 2024)
